# Results published in patent publication US20070197453A1, “Compositions and methods for treatment of disorders of protein aggregation” (priority 2006, published 2007).
# “Also recorded” adds a separate entry of the source.
# Assays:
# Aβ40 = target: T1, Aβ40 (Homo sapiens, UniProt P05067); experiment: Cerebral Aβ content: brain Aβ40 (ELISA kit); format: in vivo, mouse; details: TgCRND8 mice with pre-existing disease; 28 day treatment from 5 months of age
# T1 construct: from tissue; host or cells: hemi-brain homogenate of TgCRND8 transgenic mice
# T1 sequence (P05067 672-711): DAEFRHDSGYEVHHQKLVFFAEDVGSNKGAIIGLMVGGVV
# Description: (§1) Plasma and Cerebral Aβ Content. Hemi-brain samples were homogenized in a buffered sucrose solution, followed by either 0.4% diethylamine/100 mM NaCl for soluble Aβ levels or cold formic acid for the isolation of total Aβ. After neutralization, the samples were diluted and analyzed for Aβ40 and Aβ42 using commercially available kits (BIOSOURCE International). Each hemisphere was analyzed in triplicate and the mean values±SEM reported. Western blot analyses were performed on all fractions using urea gels for Aβ species analyses. Aβ was detected using 6E10 (BIOSOURCE International) and Enhanced Chemiluminenscence (Amersham).
# (§2) Cerebral Aβ Content. Hemi-brain samples were homogenized in a buffered sucrose solution, followed by either 0.4% diethylamine/100 mM NaCl for soluble Aβ levels or cold formic acid for the isolation of total Aβ [22]. After neutralization the samples were diluted and analyzed for Aβ40 and Aβ42 using commercially available kits (BIOSOURCE International). Each hemisphere was analyzed in triplicate with the mean±SEM reported. Plasma was diluted and run directly on the ELISA.
# neurons = details: cited from earlier work
# Aβ42 [1] = target: T2, Aβ42 (Homo sapiens, UniProt P05067); experiment: Plasma Aβ42 levels; format: in vivo, mouse; set-up: from tissue; host or cells: plasma of TgCRND8 transgenic mice; details: TgCRND8 mice following 28 days of therapy at five months of age
# Description: as §1, §2
# Target sequence in this assay (P05067 672-713): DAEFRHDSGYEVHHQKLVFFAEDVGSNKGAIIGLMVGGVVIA
# TgCRND8 mice [2] = experiment: Morris Water Maze spatial reference memory test; format: in vivo, mouse; details: for spatial memory / cognition compared to untreated TgCRND8 mice / spatial memory compared to non-Tg littermates: one month treatment from 5 months of age; for effect on non-Tg littermate performance: one month treatment
# Description: (§3) Behavioural tests: Morris Water Maze testing was performed as previously described. After non-spatial pre-training, mice underwent place discrimination training for 5 days with 4-trials per day, followed by a cued visible platform to rule out general motivational, learning deficits and motor problems, and a probe trial to evaluate memory. […] Open field test for motor activity was preformed as described previously. Duration of walking, pausing and grooming were analyzed as indices of spontaneous locomotor activity. Sensorimotor function was examined with an Economex™ accelerating rotarod (Columbus Instruments, Columbus, Ohio), as described elsewhere. The rod was set to accelerate at a rate of 0.2 r.p.m./s, from an initial, constant speed of 5 r.p.m. Latency to fall was recorded in four daily trials, conducted at 30 min intervals. All mice were trained for seven days before testing. The test day performance score for each animal was obtained by summing its latency to fall over the four trials
# Behavioural tests: Behavioural analyses were performed using the Morris Water Maze test (13, 14). After pre-spatial training, mice underwent place discrimination training for 5 days with 4 trials per day, followed by a cued visible platform to rule out general motivational, learning deficits and motor problems. […] Open field test for motor activity was performed as described previously. Duration of walking, pausing, rearing and grooming were analyzed as indices of spontaneous locomotor activity.
# TgCRND8 mice [3] = experiment: Gliosis quantitation (GFAP astrocytes, CD68 microglia); format: in vivo, mouse
# Description: Gliosis Quantitation. Five randomly selected, evenly spaced, sagittal sections were collected from paraformaldehyde-fixed and frozen hemispheres of treated and control mice. Sections were immunolabelled for astrocytes with anti-rat GFAP IgG2a (Dako; diluted 1:50) and for microglia with anti-rat CD68 IgG2b (Dako; 1:50). Digital images were captured using a Coolsnap digital camera (Photometrics, Tuscon, Ariz.) mounted to a Zeiss, Axioscope 2 Plus microscope. Images were analysed using Openlab 3.08 imaging software (Improvision, Lexington Mass.).
# Aβ42 [4] = target: T2, Aβ42; experiment: Cerebral Aβ content: brain Aβ42 (ELISA kit); format: in vivo, mouse; set-up: from tissue; host or cells: hemi-brain homogenate of TgCRND8 transgenic mice; details: TgCRND8 mice with pre-existing disease; 28 day treatment from 5 months of age
# Description: as §1, §2
# Target sequence in this assay (P05067 672-713 limits assumed): as the sequence (P05067 672-713) above
# TgCRND8 mice [5] = experiment: Cerebral amyloid plaque burden (anti-Aβ immunostaining, image analysis); format: in vivo, mouse
# Description: Cerebral amyloid burden. Brains were removed and one hemisphere was fixed in 4% paraformaldehyde and embedded in paraffin wax in the mid sagittal plane. To generate sets of systematic uniform random sections, 5 μm serial sections were collected across the entire hemisphere. Sets of sections at 50 μm intervals were used for analyses (10-14 sections/set). Plaques were identified after antigen retrieval with formic acid, and incubation with primary anti-Aβ antibody (Dako M-0872), followed by secondary antibody (Dako StreptABCcomplex/horseradish kit). End products were visualized with DAB and were counter-stained with luxol fast blue. Amyloid plaque burden was assessed with Leco IA-3001 image analysis software interfaced with Leica microscope and Hitachi KP-M1U CCD video camera. Openlab imaging software (Improvision, Lexington, Mass.) was then used to convert micrographs to binary images for plaque number and plaque area determinations. Vascular amyloid burden was defined as amyloid originating from or surrounding blood vessels and was analysed similarly.
# TgCRND8 mice [6] = experiment: Survival census (Kaplan-Meier); format: in vivo, mouse; details: for Kaplan Meier cumulative survival: compared to untreated TgCRND8 mice
# Description: (§4) Survival Census: The probability of survival was assessed by the Kaplan-Meier technique, computing the probability of survival at every occurrence of death, thus making it suitable for small sample sizes. For the analyses of survival, 35 mice were used for each treatment group. The Tarone-Ware test was used to assess effects of treatments.
# as §4, with “technique” for “technique,”, “30” for “35”
# Aβ = details: reference [11]; cited from earlier work
# [7] = 6-18 grams/day/adult or 86-257 mg/Kg/day; reference [21]; cited from earlier work
# Pilot in vivo studies = details: data not shown
# TgCRND8 mice [8] = experiment: Cued visible platform test (Morris Water Maze); format: in vivo, mouse; details: one month treatment from 5 months of age
# Description: as §3
# (§5) Behavioural tests: Behavioural analyses were performed using the Morris Water Maze test (13, 14). […] Duration of walking, pausing, rearing and grooming were analyzed as indices of spontaneous locomotor activity.
# TgCRND8 mice [9] = experiment: Open field test for motor activity; format: in vivo, mouse; details: TgCRND8 mice and non-Tg littermates; drinking water 10 mg/ml, extended treatment
# Description: as §3, §5
# TgCRND8 mice [10] = experiment: Synaptophysin quantification by western blotting (hippocampus); format: in vivo, mouse
# Description: Synaptophysin protein levels were determined in treated and control mice by western blotting. Sections were immunoblotted for synaptophysin with anti-synaptophysin IgG (1:40; Roche, Laval, PQ) or GAPDH IgG (1: 10,000; Biodesign International) as a loading control. Films were scanned before analyses using NIH Image analyses combined with densitometry. Synaptophysin values were normalized to the loading control for each sample. Statistical analyses were determined using factorial ANOVA with Fishers PLSD as a post-hoc test.
# [11] = Hematology and serum biochemical analyses; format: in vivo, mouse
# Source text: Blood was collected prior to sacrifice and samples were sent to VITA-TECH laboratories (Markham, ON, Canada) for analyses. Reference values were obtained from Zhou and Hansson.
# [12] = mouse, in vivo
# Description: Mice. […] This initial dosage was chosen based upon the dosage of myo-cyclohexanehexol (6-18 grams/day/adult or 86-257 mg/Kg/day) that is typically administered to human patients for various psychiatric disorders. […] A cohort of animals (n=10 mice per treatment arm) entered the study at five months of age, and outcomes were then analyzed after one month of treatment. The body weight, coat characteristics and in cage behaviour were monitored. Mannitol was used as a negative control for potential alterations in caloric intake. All experiments were performed according to the Canadian Council on Animal Care guidelines.
# Mice. […] Cohorts of animals entered the study at 5 months of age and outcomes were analyzed after one month. Alternatively, cohorts of animals entered the prophylactic study at 6 weeks of age and outcome measures were analysed at 6-months of age. The body weight, coat characteristics and in cage behaviour was monitored. All experiments were performed according to the Canadian Council on Animal Care guidelines.
# [13] = six month old TgCRND8 mice, 28 days of oral treatment beginning at five months of age
# [14] = TgCRND8 mice, 4-month Prophylactic (oral from 6 weeks to 4 months of age)
# [15] = TgCRND8 mice, 6-month Prophylactic (oral from 6 weeks to 6 months of age)
# [16] = TgCRND8 mice, oral treatment for 28 days (1 month) from 5 months of age, analysed at 6 months
# [17] = drinking water 10 mg/ml, listed as Epi-2-inosose
# [18] = drinking water 10 mg/ml, prophylactic from 6 weeks until six months of age
molecule,measurement,setting,value
"1,2,3,4,5/6-(epi-)cyclohexanehexol [epi-cyclohexanehexol]",effect on brain Aβ40 levels,Aβ40,no significant impact
same,activity against synthetic Aβ42 neurotoxicity,neurons,protects neurons from synthetic Aβ42 cytotoxicity
same,Plasma Aβ42 levels,Aβ42 [1],1079 ± 79 pg/mL
same,Non-Tg littermate behaviour under treatment,"TgCRND8 mice [2]; non-Tg littermates, Morris Water Maze",not affected
same,cognition compared to non-Tg mice,"TgCRND8 mice [2]; prophylactic treatment, four months of age",significantly different from treated and untreated non-Tg mice
same,cognition compared to non-Tg littermates,"TgCRND8 mice [2]; prophylactic treatment, six months of age",approached that of non-Tg littermates
same,spatial reference memory performance compared to non-Tg littermates,TgCRND8 mice [2]; [13],significantly poorer than the performance of their non-Tg littermates; also recorded: remained impaired with respect to non-Tg littermates
same,spatial reference memory performance compared to untreated TgCRND8 littermates,TgCRND8 mice [2]; [13],not significantly different from that of untreated TgCRND8 littermates
same,percent brain area covered with microgliosis,TgCRND8 mice [3]; TgCRND8 mice,decreased the percent brain area covered with microgliosis
same,"astrogliosis / gliosis, anti-GFAP immunostaining",TgCRND8 mice [3]; TgCRND8 mice at six months of age,decrease in astrogliosis
same,percent brain area covered in astrogliosis,"TgCRND8 mice [3]; TgCRND8 mice, 4- and 6-months of age",decreased the percent brain area covered in astrogliosis at both 4- and 6-months of age
same,effect on brain Aβ42 levels,Aβ42 [4],no significant impact
same,"amyloid (plaque) burden, immunostaining","TgCRND8 mice [5]; TgCRND8 mice at six months of age, hippocampus and cerebral cortex",modest effect on amyloid burden
same,"plaque burden (percent area of the brain covered with plaques, plaque number)","TgCRND8 mice [5]; TgCRND8 mice with pre-existing disease, one month treatment from 5 months of age",no significant impact
same,Mean Plaque Size,TgCRND8 mice [5]; [14],95 ± 43 μm^2
same,Total Plaque Area,TgCRND8 mice [5]; [14],65042 ± 5199 μm^2
same,Mean Plaque Size,TgCRND8 mice [5]; [15],370 ± 9 μm^2
same,Total Plaque Area,TgCRND8 mice [5]; [15],380456 ± 13498 μm^2
same,Mean Plaque Size,TgCRND8 mice [5]; [16],346 ± 6 μm^2
same,Total Plaque Area,TgCRND8 mice [5]; [16],459706 ± 49966 μm^2
same,Total Plaque Count,"TgCRND8 mice [5]; TgCRND8 mice, oral treatment for 28 days from 5 months of age, analysed at 6 months",1342 ± 114
same,Kaplan Meier cumulative survival,TgCRND8 mice [6],did not significantly improve survival
"OC1C(O)C(O)C(O)C(O)C1O (stereo not drawn) [chiro-inositol, chiro-cyclohexanehexol, reference compound]",activity against synthetic Aβ42 neurotoxicity,neurons,inactive
"O[C@H]1[C@H](O)[C@@H](O)[C@H](O)[C@@H](O)[C@H]1O [myo-cyclohexanehexol, 1,2,3,5/4,6-(myo-)cyclohexanehexol]",effectiveness in prior in vitro studies,Aβ,only weakly effective
same,toxicity,[7],no toxicity in humans or animals
same,benefit in pilot in vivo studies,Pilot in vivo studies,no significant benefit
epi-2-inosose,Visual acuity (cued version of the Morris Water Maze test),TgCRND8 mice [8],not altered by treatment
same,spatial memory / cognition compared to untreated TgCRND8 mice,TgCRND8 mice [2]; drinking water 10 mg/ml,significantly better than untreated TgCRND8 littermates
same,spatial memory compared to non-Tg littermates,TgCRND8 mice [2]; drinking water 10 mg/ml,not significantly different from non-Tg littermates
same,spatial memory / cognition compared to untreated TgCRND8 mice,TgCRND8 mice [2]; [17],significantly improved cognition
same,spatial memory compared to non-Tg littermates,TgCRND8 mice [2]; [17],not significantly different from treated nTg littermates
same,spatial learning compared to non-Tg littermates,TgCRND8 mice [2]; [18],approached that of non-Tg littermates
same,spatial learning compared to untreated TgCRND8 littermates,TgCRND8 mice [2]; [18],better cognitive function compared to their untreated TgCRND8 littermates
same,spatial learning compared to non-Tg littermates,"TgCRND8 mice [2]; drinking water 10 mg/ml, prophylactic from 6 weeks until six months of age, listed as Epi-2-inosose",different from non-Tg littermates on all days of testing
same,effect on non-Tg littermate performance,"TgCRND8 mice [2]; non-Tg littermates, drinking water 10 mg/ml",no effect on non-Tg littermate performance
same,effect on non-Tg littermate performance,"TgCRND8 mice [2]; non-Tg littermates, drinking water 10 mg/ml, listed as Epi-2-inosose",no effect on non-Tg littermate behaviour
same,effect on cognitive performance of non-Tg mice,"TgCRND8 mice [2]; non-Tg mice, prophylactic administration",no effect on the cognitive performance of non-Tg mice
same,"open field test: rearing, grooming, walking, pausing (activity levels)",TgCRND8 mice [9],indistinguishable; also recorded: does not affect activity levels
same,Synaptophysin reactivity / levels,TgCRND8 mice [10]; 6 month prophylactic and treatment paradigms,significantly increased
same,increase in synaptophysin reactivity in the hippocampus,TgCRND8 mice [10]; delayed treatment study,15%
same,increase in synaptophysin reactivity in the hippocampus,TgCRND8 mice [10]; prophylactic study,33%
same,serum biochemistry: organ function,[11]; Tg and non-Tg mice treated,"normal kidney, heart, liver and pancreas function"
same,ALP,"[11]; serum, Treated TgCRND8",73 ± 5 U/L
same,ALT,"[11]; serum, Treated TgCRND8",30 ± 3 U/L
same,Albumin,"[11]; serum, Treated TgCRND8",32 ± 2 g/L
same,Bilirubin,"[11]; serum, Treated TgCRND8",1.8 ± 0.15 µmol/L
same,Creatine,"[11]; serum, Treated TgCRND8",15.9 ± 2 µmol/L
same,Globulin,"[11]; serum, Treated TgCRND8",18 ± 2 g/L
same,Glucose,"[11]; serum, Treated TgCRND8",12 ± 0.6 mmol/L
same,Total Protein,"[11]; serum, Treated TgCRND8",49 ± 0.7 g/L
same,Urea,"[11]; serum, Treated TgCRND8",8.6 ± 0.4 mmol/L
same,"survival, weight, fur condition, cage behaviour",[12],"no effect on survival, weight, fur condition, or cage behaviour of wild type mice"
same,Kaplan Meier cumulative survival,TgCRND8 mice [6]; drinking water 10 mg/ml,increased survival
same,improvement of survival,"TgCRND8 mice [6]; prophylactic treatment to six months of age, vs untreated",50%
